Patent publication US9856218B2, “Inhibitors of PRMT5 and methods of their use” (Ohio State Innovation Foundation, priority 2013, dated 2018)
pEC50, pIC50: −log10 of the molar value.

How the values were obtained:
[1] = tested on: Mantle cell lymphoma cell line Jeko; test: MTS anti-proliferation assay; format: cell-based
Method: MTS proliferation assays were performed according the CellTiter 96™ Aqueous Cell Proliferation Assay Technical Bulletin (Promega, Madison, Wis.). 5×10^5 cells were plated in each well of a 96-well plate at 37° C. and assayed for proliferation at 24, 48, and 72 hr. Proliferation signal at 50% of control was used as IC50 for growth.
(§1) Following the synthesis of 14 compounds, the anti-proliferation and pro-apoptotic activities of those compounds was evaluated in Mantle cell lymphoma cell line Jeko. Replicate cultures of Jeko were incubated in DMSO and the compounds for 24, 48 and 72 hours. FITC-Annexin V-PI stained flow cytometry was used to detect the apoptotic population of cells (Table 4).

HNSCC tumor cells = test: Proliferation of HNSCC tumor cells; format: cell-based; details: FIG. 58
[2] = tested on: Mantle cell lymphoma cell line Jeko; test: Induction of apoptosis, FITC-Annexin V-PI flow cytometry; format: cell-based
Method: Analysis by flow cytometry. Cell viability was also measured by flow cytometry at 24 and 48 hr using annexin-V-FITC and propidium iodide (PI) according to the manufacturer's instructions (BD Biosciences).
as §1

[3] = molecular target: T1, recombinant human PRMT5/MEP50 enzyme (Homo sapiens, UniProt O14744); test: Epigenase PRMT methyltransferase (type II-specific) activity/inhibition assay kit; format: biochemical; details: 25 ng recombinant human PRMT5/MEP50 per reaction; read-out: Inhibition of PRMT5 mediated H4R3 methylation (IC50)
T1 construct: purchased BPS Bioscience
Method: The inhibition of PRMT5 mediated H4R3 methylation result was obtained with Epigenase™ PRMT methyltransferase (type II-specific) activity/inhibition assay kit. 25 ng recombinant human PRMT5/MEP50 enzyme (purchased from BPS Bioscience) was used in each reaction.

[4] = In vivo pharmacokinetics, plasma concentration; design: species or system Mouse; details: mouse, in vivo
Source text: Pharmacokinetic data of compounds HLCL-7, HLCL-61, and HLCL-66 taken from an in vivo study is illustrated in Table 10. […]

[5] = MTD study, four mice each dose; format: in vivo; details: mouse, in vivo, ip
Method: (§2) Controlled shRNA depletion was evaluated in a murine lymphoma model (Eμ-BRD2 (Chung, J., et al. (2013) J. Biological Chemistry 288, 35534-35547)) and human xenograft model of glioblastoma (Yan, F., et al (2014) Cancer Research In Press). Referring to FIG. 62A, controlled expression of a PRMT5 shRNA (solid line) but not control shRNA (dashed line) leads to 100% survival of mice engrafted primary DLBCL tumor cells. […] The maximum tolerated dose (MTD, single dose) was identified at 50 mg/kg (see Table 11 below). A sub-toxic dose (25 mg/kg) was used to treat FcMCL mice. Control mice developed peripheral blood and lymph node tumor burden starting day 20 post-engraftment.

[6] = 24 hr Quick MTD test, one mouse for each dose; format: in vivo
Method: as §2

OG2 cells = test: Viability/apoptosis assay alone and in combination with temozolomide; format: cell-based; details: in combination with TMZ, FIG. 13
Source text: OG2 cells are tumor cells derived from glioblastoma primary tumors.

multiple cell lines = test: Proliferation of multiple cell lines (FIG. 59); format: cell-based; details: FIG. 59A-E
Method: Proliferation of multiple cell lines was evaluated for CMPD 5, CMPD 7, HLCL61, HLCL-65, and HLCL-66 (FIG. 59A-E).

CAL-27 cell line = test: Migration scratch assay; format: cell-based; details: CAL-27, 16 h and 24 h
Method: Referring to FIG. 60, PRMT5 and squamous cell carcinoma migration in response to HLCL-66 is illustrated. Migration was performed as previously described (Nowicki, M. O., et al. (2008) Neuro. Oncol. 10, 690-699). Briefly, a migration scratch assay was performed with CAL-27 cell line treated with HLCL-66 for 0, 16, and 24 hours.

T1 sequence (O14744 2-637 limits assumed): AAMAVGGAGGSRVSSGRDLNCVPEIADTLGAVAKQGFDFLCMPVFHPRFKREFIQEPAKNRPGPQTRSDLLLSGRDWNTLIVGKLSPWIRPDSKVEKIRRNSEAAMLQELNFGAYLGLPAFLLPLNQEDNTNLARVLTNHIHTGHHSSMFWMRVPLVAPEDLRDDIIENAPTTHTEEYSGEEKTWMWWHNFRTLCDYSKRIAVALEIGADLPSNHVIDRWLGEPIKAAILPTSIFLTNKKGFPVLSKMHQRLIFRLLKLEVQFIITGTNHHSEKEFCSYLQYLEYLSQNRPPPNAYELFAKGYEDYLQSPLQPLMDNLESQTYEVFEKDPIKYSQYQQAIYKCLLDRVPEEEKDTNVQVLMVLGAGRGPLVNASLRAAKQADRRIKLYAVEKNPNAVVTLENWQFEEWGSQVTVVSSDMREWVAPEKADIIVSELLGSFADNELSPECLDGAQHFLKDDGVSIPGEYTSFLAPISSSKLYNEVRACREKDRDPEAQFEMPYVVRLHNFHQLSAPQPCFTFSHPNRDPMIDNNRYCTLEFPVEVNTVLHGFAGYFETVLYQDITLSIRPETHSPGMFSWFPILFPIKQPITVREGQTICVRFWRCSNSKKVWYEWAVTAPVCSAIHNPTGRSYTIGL
T1 sequence (Q9BQA1 2-342 partner limits assumed): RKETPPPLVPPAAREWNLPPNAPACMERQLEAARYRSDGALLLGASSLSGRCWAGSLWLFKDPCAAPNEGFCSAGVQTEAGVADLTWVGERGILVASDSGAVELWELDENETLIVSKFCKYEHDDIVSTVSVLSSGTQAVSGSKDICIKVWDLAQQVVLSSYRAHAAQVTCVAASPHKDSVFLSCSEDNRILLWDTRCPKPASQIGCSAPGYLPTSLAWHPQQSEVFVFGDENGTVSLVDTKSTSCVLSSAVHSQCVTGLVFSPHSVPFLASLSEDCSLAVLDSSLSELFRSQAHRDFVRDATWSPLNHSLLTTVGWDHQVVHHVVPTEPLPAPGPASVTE

## CCn1c2ccccc2c2cc(NC(=N)Nc3ccc(S(C)(=O)=O)cc3)ccc21 [HLCL-7]
[1]; 24 h incubation
  pIC50: 4.49
[1]; 48 h incubation
  pIC50: 4.59
[1]; 72 h incubation
  pIC50: 4.89
HNSCC tumor cells
  proliferation of HNSCC tumor cells: inhibit proliferation in a dose-dependent manner
[2]; 24 h
  pEC50: 4.49
[2]; 48 h
  pEC50: 4.59
[3]
  pIC50: 5.15
[4]; ip, 25 mg/kg
  concentration at 0.08 h: 7570 nM
  concentration at 0.17 h: 886 nM
  concentration at 0.33 h: 7540 nM
  concentration at 0.5 h: 7480 nM
  concentration at 1 h: 4910 nM
  concentration at 2 h: 7680 nM
  concentration at 4 h: 4130 nM
  concentration at 6 h: 2540 nM
  concentration at 8 h: 2790 nM
  concentration at 24 h: 1.35 nM
[4]; iv, 5 mg/kg
  concentration at 0.08 h: 3240 nM
  concentration at 0.17 h: 3070 nM
  concentration at 0.33 h: 1500 nM
  concentration at 0.5 h: 911 nM
  concentration at 1 h: 601 nM
  concentration at 2 h: 507 nM
  concentration at 4 h: 200 nM
  concentration at 6 h: 76.2 nM
  concentration at 8 h: 77.1 nM
  concentration at 24 h: 1.38 nM
[5]; 5 mg/kg, 24 h
  survival 24 hr after dosing: Alive 24 hr after
[5]; 50 mg/kg
  condition within 1 hr after dosing (alive but slow moving): Alive within 1 hr after
[5]; 50 mg/kg, 24 h
  mice lethargic and slow moving 24 hr after dosing: after dosing, 1 out 4
  survival 24 hr after dosing: moving. Alive 24 hr
[6]; IV-2.5 mg/kg, one mouse
  survival after dosing: Alive 24 hr after
[6]; mouse, in vivo, ip, 50 mg/kg, 24 h
  survival after dosing: Alive 24 hr after
[6]; mouse, in vivo, ip, 100 mg/kg, 24 h
  survival after dosing: Dead within 1 hr after
[6]; mouse, in vivo, ip, 200 mg/kg, 24 h
  survival after dosing: Dead within 1 hr after
[6]; mouse, in vivo, iv, 5 mg/kg, 24 h
  survival after dosing: Alive 24 hr after
[6]; mouse, in vivo, iv, 10 mg/kg
  clinical signs after dosing (slow moving): dosing but slow
[6]; mouse, in vivo, iv, 10 mg/kg, 24 h
  survival after dosing: Alive 24 hr after
[6]; mouse, in vivo, iv, 20 mg/kg
  survival after dosing: Dead instantly after

## CCn1c2ccccc2c2cc(/C=C/C(=O)c3ccccc3OC)ccc21 [HLCL-66]
[1]; 24 h incubation
  pIC50: 5.72
[1]; 48 h incubation
  pIC50: 6.40
[1]; 72 h incubation
  pIC50: 6.70
OG2 cells
  induction of apoptosis in combination: synergistic
[2]; 24 h
  pEC50: 5.85
[2]; 48 h
  pEC50: 6.30
Multiple cell lines
  potency, proliferation of multiple cell lines: low micromolar range
[3]
  pIC50: 4.59
CAL-27 cell line
  gap closure (migration): affected in a dose-response fashion
